Like-named read-outs stand apart in the source and are kept apart here.

One data set relates to mouse spleen cells. In words: Proliferation inhibition assay for mouse spleen cells. The data set is classed as cell-based. The settings on record: 72 h, 3 days, Alamar Blue. Summed up: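 C57BL/6N female mouse spleen cells (2×10^6 cells/mL) stimulated with Con A (3 μg/mL), LPS (100 μg/mL) or anti-mouse IgM (100 μg/mL) alongside serially diluted compounds, 3 days at 37° C, 5% CO2. Alamar Blue added for a further day; fluorescence read at ex 530/em 590 nm.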
A general note: Alamar Blue is a resazurin reagent that responds to reducing activity.

In data set [1] the test system is Rabbit synoviocytes HIG-82. In words: Inhibition assay for proliferation of rabbit synoviocyte. The data set is classed as cell-based. The settings on record: Oryctolagus cuniculus, 72 h; HIG-82, 3 days, Alamar Blue. How it is done: Rabbit synoviocytes HIG-82 suspended in HAM medium (containing 10% fetal bovine serum, 25 mM HEPES, and 0.1 mg/mL kanamycin) (with 4×10^4 cells/mL) were seeded in wells of a 96 well plate at 0.135 mL per well. Then, 15 μL of each of serial dilutions of test substances was added to a respective well, and incubated under conditions of carbon dioxide 5% at a temperature 37° C. Alamar Blue solution was added at 50 μL per well on day 0 and day 3, and incubated for one day, and thereafter fluorescence intensity at 590 nm using an excitation wavelength of 530 nm was determined by Cytoflour 4000 (Applied Biosystems).

The test system of a further data set is Daudi cells. In words: Proliferation inhibitory activity on hematologic neoplasm cells, Daudi. The data set is classed as cell-based. The settings on record: Homo sapiens, Daudi, 72 h; 3 days, Alamar Blue. As for the experimental part: (§1) Daudi cells (5×10^5 cells/mL), Jurkat cells (5×10^5 cells/mL), THP-1 cells (5×10^5 cells/mL), U 937 cells (5×10^5 cells/mL), and HL 60 cells (5×10^5 cells/mL) suspended in RPMI 1640 medium (containing 10% fetal bovine serum, 10 mM HEPES, 1 mM pyruvic acid, 4.5 g/L glucose, 100 units/mL penicillin, and 0.1 mg/mL streptomycin) were seeded in 96 well plates at a capacity of 0.135 mL per well. Serial dilutions of test substances were added to respective wells at 15 μL/well, and incubated under conditions of carbon dioxide 5% at 37° C. for 3 days. Thereafter, Alamar Blue solution was added at 50 μL, and after incubation for one day, the fluorescence intensity at 590 nm using an excitation wavelength of 530 nm was determined by Cytoflour 4000 (Applied Biosystems).

A further data set concerns Jurkat cells. Nature of the data set: Proliferation inhibitory activity on hematologic neoplasm cells, Jurkat. To be noted: Homo sapiens, Jurkat, 72 h; 3 days, Alamar Blue. The data set is classed as cell-based. As for the experimental part:
as §1

The next data set relates to THP-1 cells. In words: Proliferation inhibitory activity on hematologic neoplasm cells, THP-1. Format: cell-based. To be noted: Homo sapiens, THP-1, 72 h; 3 days, Alamar Blue. How it is done: as §1
For data set [2], the system named is PC-3 prostate cancer cells. Nature of the data set: Proliferation inhibitory activity on solid tumor cells, PC-3. The data set is classed as cell-based. The settings on record: 72 hours. How it is done:
(§2) Used in the test were MCF-7 cells which were established from human breast cancer and were cultured routinely under the conditions of 37° C. and 5% CO2, in MEM medium supplemented with 10% fetal calf serum, 25 mM of HEPES and 0.1 mg/ml kanamycin. The MCF-7 cells in a logarithmic growth phase were treated with trypsin/EDTA to prepare single cell suspension adjusted to 4.0×10^4 cells/ml in MEM medium (supplemented with 10% fetal calf serum, 25 mM of HEPES and 0.1 mg/ml kanamycin). Test compounds were dissolved in DMSO and diluted with RPMI 1640 medium (supplemented with 10% fetal calf serum, 25 mM of HEPES and 0.1 mg/ml kanamycin) to a concentration of […] to 2.0×10^−9M.
(§3) The cell suspension was filled in a 96-wells microplate at a rate of 0.1 ml per well and was cultured for 24 hours so as to make the cells to adhere to the microplate. Then, it was added with 0.1 ml of the sample solution and cultured at 37° C. for 72 hours in 5% CO2.
(§4) 50% Growth inhibition concentrations (GI50 μM) were calculated from growth inhibitions at various sample concentrations.
(§5) In the foregoing, when the cells other than MCF-7 are used, instead of adding 10% fetal bovine serum, the following media were used, and the following single cell suspensions were prepared. • PC-3 prostate cancer cells: 10% fetal bovine serum in F12K medium, single cell suspension of 2×10^4 cells; • A549 lung cancer cells: 10% fetal bovine serum in DMEM medium, single cell suspension of 1.5×10^4 cells; • WiDr colon cancer cells: 10% fetal bovine serum in MEM medium, single cell suspension of 3×10^4 cells; • B16F10 melanoma cells: 10% fetal bovine serum in RPMI 1640 medium, single cell suspension of 1×10^4 cells;

The next data set has as its system B16F10 melanoma cells. Nature of the data set: Proliferation inhibitory activity on solid tumor cells, B16F10. To be noted: Mus musculus, B16-F10; 72 hours. The data set is classed as cell-based. How it is done: as §2, §3, §4, §5
For the next data set, the system named is WiDr colon cancer cells. Nature of the data set: Proliferation inhibitory activity on solid tumor cells, WiDr. Format: cell-based. The settings on record: Homo sapiens, 72 hours. How it is done: as §2, §3, §4, §5
The subject of another data set is A549 lung cancer cells. In words: Proliferation inhibitory activity on solid tumor cells, A549. Format: cell-based. The settings on record: Homo sapiens, 72 hours. As for the experimental part:
as §2, §3, §4, §5

For the next data set, the system named is MCF-7 cells. Nature of the data set: Proliferation inhibitory activity on solid tumor cells, MCF-7. Format: cell-based. The settings on record: Homo sapiens, MCF7; 72 hours. How it is done:
as §2, §3, §4

Setting [3] is: LPS 100 μg/mL, read-out: Inhibition of LPS response.
The mark [4] stands for this setting: concanavalin A 3 μg/mL, read-out: Inhibition of Con A response.

Take `O=C1CCN(c2nc(N3CCOCC3)nc(-n3c(C(F)F)nc4ccccc43)n2)CCN1` [Compound 25, 2-(2-Difluoromethylbenzimidazol-1-yl)-4-morpholino-6-(5-oxo-1,4-diazepan-1-yl)-1,3,5-triazine]: the melting point was in the range of 235 to 237 °C. Also, in the data set on mouse spleen cells (setting [3]), the IC50 lay in the range of 100 to 10000 nM. In the data set with mouse spleen cells (setting [4]), the IC50 lay within 1 to 100 nM. The same molecule displayed an IC50 in [1] of 990 nM. The IC50 in the data set on Daudi cells turned out to be 190 nM. Moreover, the IC50 in the data set on Jurkat cells was 1590 nM. For the same molecule, the IC50 with THP-1 cells amounted to 379 nM. The same molecule showed a GI50 in [2] of 270 nM. In addition, it took 3210 nM to inhibit growth in the data set with B16F10 melanoma cells by half (GI50). In the data set on WiDr colon cancer cells, this molecule displayed a GI50 of 920 nM. Further, the 50% growth inhibitory concentration (GI50) in the data set with A549 lung cancer cells worked out at 990 nM. For the same molecule, the GI50 in the data set on MCF-7 cells was found to be 980 nM.
Molecule `OCCN1CCN(c2nc(N3CCOCC3)nc(-n3c(C(F)F)nc4ccccc43)n2)CC1` [Compound 27, 2-(2-Difluoromethylbenzimidazol-1-yl)-4-[4-(2-hydroxyethyl)piperazin-1-yl]-6-morpholino-1,3,5-triazine] returned a melting point of 174 to 177 °C. In the data set with mouse spleen cells (setting [3]), the IC50 was 100 to 10000 nM. Besides, in the data set with mouse spleen cells (setting [4]), the IC50 is at most 1 nM. In data set [1], this molecule had an IC50 of 1560 nM. Moreover, in the data set with Daudi cells, the IC50 came out at 324 nM. The same molecule registered an IC50 in the data set on Jurkat cells of 3600 nM. In the data set on THP-1 cells, this molecule registered an IC50 of 730 nM. In [2], it took 310 nM to inhibit growth by half (GI50). The GI50 in the data set on B16F10 melanoma cells amounted to 4630 nM. Moreover, it took 1320 nM to inhibit growth in the data set with WiDr colon cancer cells by half (GI50). This molecule came in with a GI50 with A549 lung cancer cells of 1120 nM. Further, the GI50 with MCF-7 cells came out at 1140 nM.
The molecule `O=C(Cc1ccccc1)N1CCN(c2nc(N3CCOCC3)nc(-n3c(C(F)F)nc4ccccc43)n2)CC1` [Compound 29, 2-(2-Difluoromethylbenzimidazol-1-yl)-4-(4-benzylcarbonylpiperazin-1-yl)-6-morpholino-1,3,5-triazine] had a melting point of 178 to 181 °C. Further, the GI50 in [2] was 320 nM. This molecule also showed a GI50 with B16F10 melanoma cells of 3930 nM. In addition, halving of growth in the data set with WiDr colon cancer cells (GI50) required 2580 nM. It took 1320 nM to inhibit growth in the data set with A549 lung cancer cells by half (GI50). The molecule also yielded a GI50 with MCF-7 cells of 700 nM.
`CCC(=O)N1CCN(c2nc(N3CCOCC3)nc(-n3c(C(F)F)nc4ccccc43)n2)CC1` [Compound 35, 2-(2-Difluoromethylbenzimidazol-1-yl)-4-morpholino-6-(4-propionylpiperazin-1-yl)-1,3,5-triazine] gave a melting point of 198 to 202 °C. In data set [2], this molecule displayed a 50% growth inhibitory concentration (GI50) of 730 nM. In the data set on B16F10 melanoma cells, this molecule gave a GI50 of 2840 nM. Further, in the data set on WiDr colon cancer cells, growth was halved (GI50) at 2100 nM. This molecule came in with a GI50 with A549 lung cancer cells of 1220 nM. This molecule also registered a GI50 in the data set with MCF-7 cells of 100 nM.
The molecule `CC(=O)CN1CCN(c2nc(N3CCOCC3)nc(-n3c(C(F)F)nc4ccccc43)n2)CC1` [Compound 30, 4-(4-Acetonylpiperazin-1-yl)-2-(2-difluoromethylbenzimidazol-1-yl)-6-morpholino-1,3,5-triazine] displayed a melting point of 79 to 81 °C. In data set [2], this molecule showed a GI50 of 770 nM. The GI50 in the data set with B16F10 melanoma cells was 3320 nM. In addition, in the data set with WiDr colon cancer cells, the GI50 amounted to 3740 nM. This molecule also showed a GI50 in the data set with A549 lung cancer cells of 1520 nM. The GI50 in the data set on MCF-7 cells was determined as 410 nM.

One may read the GI50 as the concentration giving 50% growth inhibition. Higher therefore signals less potent growth inhibition. Usually melting point stands for the temperature, or range, at which the solid turns liquid.
